From paper PMC9607330, “Cell Cycle Arrest and Apoptosis-Inducing Ability of Benzimidazole Derivatives: Design, Synthesis, Docking, and Biological Evaluation” (Molecules, 2022)

Assays:
[1] = tested on: MDA-MB-231 cells; test: MTT antiproliferative assay, MDA-MB-231; conditions: for IC50: read-out: IC50 (μM) MDA-MB231, MTT, MDA-MB-231 (breast), mean ± SD of three experiments; for fold increase in cytotoxicity versus doxorubicin: MDA-MB-231, ratio of IC50 values
Procedure: Doxorubicin was used as a standard anticancer drug.
The cytotoxicity was assessed using the MTT method, according to our previously reported work [32]. The cell lines were purchased from American Type Culture Collection (ATCC).
FBS (10%) and 100 units/mL PS (penicillin/streptomycin) were
supplied to that same media. The cells incubated at 37 °C in a humidified environment with 5%

[2] = tested on: A549 cells; test: MTT antiproliferative assay, A549; format: cell-based, human; conditions: for IC50: Homo sapiens, MTT, A549 (lung), mean ± SD of three experiments; for times more active than doxorubicin: A549, ratio of IC50 values
Source text: (§1) adenocarcinoma) cell lines.
(§2) supplied to that same media.
(§3) carbon dioxide. […] The positive
(§4) (FluoStar Omega (BMG Labtec, Ortenberg, Germany).

[3] = target: EGFR kinase (Homo sapiens, UniProt P00533); test: In vitro EGFR inhibitory activity; format: biochemical
Procedure: EGFR inhibitory activity was assayed according to the reported method.

[4] = tested on: SKOV3 cells; test: MTT antiproliferative assay, SKOV3; format: cell-based, human; conditions: for IC50: Homo sapiens, SK-OV-3, MTT, SKOV3 (ovarian), mean ± SD of three experiments; for fold better activity than doxorubicin: SKOV3, ratio of IC50 values
Source text: as §1, §2, §3, §4

[5] = tested on: hepatocellular carcinoma; conditions: cited from earlier work
[6] = tested on: non-small cell lung cancer (NSCLC); conditions: cited from earlier work
[7] = tested on: esophageal cancer; conditions: cited from earlier work
[8] = tested on: MDA-MB-231 cells; test: Cell cycle distribution, propidium iodide flow cytometry, MDA-MB-231; format: cell-based, human; conditions: for cell cycle arrest phase: MDA-MB-231; for cell distribution in G1 phase / cell distribution in S phase / cell distribution in G2 phase: MDA-MB-231, treated at IC50 for 48 h; for cell distribution in G1 phase: control 28.51 ± 2.09%; for cell distribution in S phase: control 35.51 ± 2.10%; for cell distribution in G2 phase: control 35.96 ± 1.97%
Procedure: (§5) The most promising compounds (10 and 13) were explored for cell cycle distribution to determine the intracellular mode of action of these compounds. […] In the present study, compounds 10 and 13 arrest different cell cycle phases in A549, MDA-MB 231, and SKOV3 cancer cells. […] However, compound 10 arrests the G2/S phase in both MDA-MB 231 and SKOV3, while it arrests the G1/G2 phases in lung A549 carcinoma.
(§6) The analysis was performed according to our previously published work.
as §1, §2, §3, §4
(§7) delivered to cancer cells for 48 hours. A549, MDA,MB 231 and SKOV3 cells were then
(§8) Technology (CST) and incubated for 15 minutes. Fluorescence activated cell sorting analysis
(§9) of cell cycle phases for each sample [37].

[9] = tested on: SKOV3 cells; test: Apoptosis, annexin V-FITC/PI flow cytometry, SKOV3; format: cell-based, human
Procedure: (§10) The apoptosis studies regarding compounds 10 and 13 using annexin V-FITC/PI staining was also examined by flow cytometry.
as §1, §2, §3, §4, §7, §8, §9

[10] = tested on: MDA-MB-231 cells; test: Apoptosis, annexin V-FITC/PI flow cytometry, MDA-MB-231; format: cell-based, human; conditions: for early apoptosis / late apoptosis: MDA-MB-231
Procedure: as §10, §1, §2, §3, §4, §7, §8, §9

[11] = tested on: SKOV3 cells; test: Cell cycle distribution, propidium iodide flow cytometry, SKOV3; format: cell-based, human; conditions: for cell cycle arrest phase: SKOV3; for cell distribution in G1 phase / cell distribution in G2 phase / cell distribution in S phase: SKOV3, treated at IC50 for 48 h; for cell distribution in G1 phase: control 31.03 ± 1.86%; for cell distribution in G2 phase: control 34.23 ± 1.38%; for cell distribution in S phase: control 34.72 ± 1.80%
Procedure: as §5, §6, §1, §2, §3, §4, §7, §8, §9

[12] = tested on: A549 cells; test: Cell cycle distribution, propidium iodide flow cytometry, A549; format: cell-based, human; conditions: for cell cycle arrest phase: A549; for cell distribution in G2 phase / cell distribution in G1 phase / cell distribution in S phase: A549, treated at IC50 for 48 h; for cell distribution in G2 phase: control 29.13 ± 2.31%; for cell distribution in G1 phase: control 32.88 ± 2.04%; for cell distribution in S phase: control 38.48 ± 3.71%
Procedure: as §5, §6, §1, §2, §3, §4, §7, §8, §9

[13] = tested on: A549 cells; test: Apoptosis, annexin V-FITC/PI flow cytometry, A549; format: cell-based, human; conditions: for early apoptosis: A549; for late apoptosis / necrosis: A549, result in words
Procedure: as §10, §1, §2, §3, §4, §7, §8, §9

Chain of EGFR kinase (P00533 25-1210): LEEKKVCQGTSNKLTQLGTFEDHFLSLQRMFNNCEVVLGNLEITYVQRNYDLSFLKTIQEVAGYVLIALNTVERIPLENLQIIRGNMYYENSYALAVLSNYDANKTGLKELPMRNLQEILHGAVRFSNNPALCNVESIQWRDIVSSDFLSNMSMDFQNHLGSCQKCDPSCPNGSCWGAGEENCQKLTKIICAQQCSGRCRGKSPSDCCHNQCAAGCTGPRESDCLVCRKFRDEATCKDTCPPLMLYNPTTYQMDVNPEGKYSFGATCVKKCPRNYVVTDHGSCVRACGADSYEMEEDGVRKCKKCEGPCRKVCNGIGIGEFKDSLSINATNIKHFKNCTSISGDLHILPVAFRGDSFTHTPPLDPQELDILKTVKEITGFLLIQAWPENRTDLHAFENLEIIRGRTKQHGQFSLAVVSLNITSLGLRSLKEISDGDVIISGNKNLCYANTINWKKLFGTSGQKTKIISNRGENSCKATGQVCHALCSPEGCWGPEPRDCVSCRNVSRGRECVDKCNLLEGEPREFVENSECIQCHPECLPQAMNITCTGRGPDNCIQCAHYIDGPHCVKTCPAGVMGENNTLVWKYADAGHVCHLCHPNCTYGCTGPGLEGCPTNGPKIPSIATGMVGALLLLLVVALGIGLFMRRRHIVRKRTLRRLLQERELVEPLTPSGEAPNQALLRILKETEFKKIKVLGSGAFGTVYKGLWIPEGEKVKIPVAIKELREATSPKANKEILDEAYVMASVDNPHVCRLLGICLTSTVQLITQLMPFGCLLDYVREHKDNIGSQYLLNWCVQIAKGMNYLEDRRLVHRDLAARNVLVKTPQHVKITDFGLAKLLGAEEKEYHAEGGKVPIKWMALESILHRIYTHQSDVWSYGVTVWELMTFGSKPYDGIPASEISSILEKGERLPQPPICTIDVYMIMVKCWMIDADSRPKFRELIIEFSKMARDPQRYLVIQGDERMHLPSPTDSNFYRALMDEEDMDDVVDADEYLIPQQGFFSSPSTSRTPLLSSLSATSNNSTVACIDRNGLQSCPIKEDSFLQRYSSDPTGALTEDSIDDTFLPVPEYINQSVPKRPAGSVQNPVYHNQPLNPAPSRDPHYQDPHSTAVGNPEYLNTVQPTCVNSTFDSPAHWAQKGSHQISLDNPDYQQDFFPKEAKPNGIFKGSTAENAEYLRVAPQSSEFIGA

What does the source list for `Clc1ccc(-c2nc3ccccc3n2Cc2nnc(SCc3cn(-c4cccc(Br)c4)nn3)o2)c(Cl)c1` [Compound 9, 2-({[1-(3-Bromophenyl)-1H-1,2,3-triazol-4-yl]methyl}thio)-5-{[2-(2,4-Dichlorophenyl)-1H-benzo[d]imidazol-1-yl]methyl}-1,3,4-oxadiazole]?
IC50 [1]: 10.9 ± 0.58 µM; IC50 [2]: 17.4 ± 0.54 µM; IC50 [3]: 0.95 ± 0.023 µM; IC50 [4]: 13.6 ± 0.71 µM; melting point: 180 to 182 °C

What does the source list for `COC(=O)c1ccccc1NC(=O)CSc1nnc(Cn2c(-c3ccc(Cl)cc3Cl)nc3ccccc32)o1` [Compound 17, Methyl 2-{2-[(5-{[2-(2,4-Dichlorophenyl)-1H-benzo[d]imidazol-1-yl]methyl}-1,3,4-oxadiazol-2-yl)thio]acetamido}benzoate]?
IC50 [1]: 11.9 ± 0.91 µM; IC50 [2]: 18 ± 0.87 µM; IC50 [3]: 1.54 ± 0.026 µM; IC50 [4]: 12.2 ± 0.35 µM; melting point: 176 to 178 °C

For `C#Cc1cccc(Nc2ncnc3cc(OCCOC)c(OCCOC)cc23)c1` [Erlotinib, erlotinib], which “cell cycle arrest phase” value [5] is on record?
Its value is “G1/S checkpoint”.

And the “cell cycle arrest phase” value [6]?
The value was “G0/G1 phase”.

And the “cell cycle arrest phase” value [7]?
The value was “G1/G0 phase”.

For `Cc1ccccc1-n1cc(CSc2nnc(Cn3c(-c4ccc(Cl)cc4Cl)nc4ccccc43)o2)nn1` [Compound 11, 2-{[2-(2,4-Dichlorophenyl)-1H-benzo[d]imidazol-1-yl]methyl}-5-({[1-(o-tolyl)-1H-1,2,3-triazol-4-yl]methyl}thio)-1,3,4-oxadiazole], which IC50 [1] is on record?
The IC50 was 36.7 ± 0.75 µM.

And the IC50 [2]?
The IC50 was 43.8 ± 0.87 µM.

What about the IC50 [4] of the same molecule?
Its IC50 is 25.7 ± 1.16 µM.

And the melting point?
Its melting point is 152 to 153 °C.

Which results are given for `O=C(CSc1nnc(Cn2c(-c3ccc(Cl)cc3Cl)nc3ccccc32)o1)Nc1ccc(F)cc1F` [Compound 14, 2-[(5-{[2-(2,4-Dichlorophenyl)-1H-benzo[d]imidazol-1-yl]methyl}-1,3,4-oxadiazol-2-yl)thio]-N-(2,4-Difluorophenyl)acetamide]?
IC50 [1]: 20.9 ± 0.24 µM; IC50 [2]: 11.6 ± 0.29 µM; IC50 [3]: 1.21 ± 0.047 µM; IC50 [4]: 12.8 ± 0.53 µM; melting point: 212 to 214 °C

What does the source list for `Fc1ccc(-n2cc(CSc3nnc(Cn4c(-c5ccc(Cl)cc5Cl)nc5ccccc54)o3)nn2)cc1` [Compound 8, 2-{[2-(2,4-Dichlorophenyl)-1H-benzo[d]imidazol-1-yl]methyl}-5-({[1-(4-Fluorophenyl)-1H-1,2,3-triazol-4-yl]methyl}thio)-1,3,4-oxadiazole]?
IC50 [1]: 15.5 ± 1.64 µM; IC50 [2]: 26.7 ± 1.26 µM; IC50 [4]: 17.7 ± 0.68 µM; melting point: 110 to 112 °C

With `COc1cccc2c1C(=O)c1c(O)c3c(c(O)c1C2=O)C[C@@](O)(C(=O)CO)C[C@@H]3O[C@H]1C[C@H](N)[C@H](O)[C@H](C)O1` [doxorubicin, reference compound] as the molecule, how does the IC50 [1] read?
The IC50 was 4.76 ± 0.44 µM.

And the IC50 [2]?
The IC50 was 5.85 ± 0.61 µM.

And the IC50 [4]?
Its IC50 is 8.65 ± 0.37 µM.

For `COc1ccc(NC(=O)CSc2nnc(Cn3c(-c4ccc(Cl)cc4Cl)nc4ccccc43)o2)cc1` [Compound 16, 2-[(5-{[2-(2,4-Dichlorophenyl)-1H-benzo[d]imidazol-1-yl]methyl}-1,3,4-oxadiazol-2-yl)thio]-N-(4-Methoxyphenyl)acetamide], which IC50 [1] is on record?
Its IC50 is 10.5 ± 0.88 µM.

What about the IC50 [2] of the same molecule?
The IC50 was 7.83 ± 0.35 µM.

What about the IC50 [3] of the same molecule?
The IC50 was 1.09 ± 0.011 µM.

And the IC50 [4]?
The IC50 was 8.13 ± 0.28 µM.

What about the melting point of the same molecule?
Its melting point is 195 to 197 °C.

Which results are given for `Oc1ccccc1-n1cc(CSc2nnc(Cn3c(-c4ccc(Cl)cc4Cl)nc4ccccc43)o2)nn1` [Compound 10, 2-(4-{[(5-{[2-(2,4-Dichlorophenyl)-1H-benzo[d]imidazol-1-yl]methyl}-1,3,4-oxadiazol-2-yl)thio]methyl}-1H-1,2,3-triazol-1-yl)phenol]?
fold increase in cytotoxicity versus doxorubicin [1]: 4.0 fold; IC50 [1]: 1.18 ± 0.68 µM; cell cycle arrest phase [8]: S and G2 phases; cell distribution in G1 phase [8]: 17.58 ± 1.45%; cell distribution in S phase [8]: 37.82 ± 2.57%; cell distribution in G2 phase [8]: 44.58 ± 3.03%; times more active than doxorubicin [2]: 1.76 times; IC50 [2]: 3.31 ± 0.14 µM; IC50 [3]: 0.33 ± 0.051 µM; early apoptosis [9]: 58.5%; early apoptosis [10]: 69.7%; late apoptosis [10]: 3.2%; necrosis ([10]; MDA-MB-231, result in words): without any necrosis; IC50 [4]: 6.98 ± 0.28 µM; fold better activity than doxorubicin [4]: 1.23 fold; cell cycle arrest phase [11]: G2/S phase; cell distribution in G1 phase [11]: 16.15 ± 2.11%; cell distribution in G2 phase [11]: 48.73± 1.89%; cell distribution in S phase [11]: 35.11 ± 1.21%; cell cycle arrest phase [12]: G1 and G2 phases; cell distribution in G2 phase [12]: 33.01 ± 2.28%; cell distribution in G1 phase [12]: 34.66 ± 2.80%; cell distribution in S phase [12]: 32.32 ± 1.51%; early apoptosis [13]: 55.1%; late apoptosis [13]: no late apoptosis; necrosis [13]: no late apoptosis or necrosis

With `O=C(CSc1nnc(Cn2c(-c3ccc(Cl)cc3Cl)nc3ccccc32)o1)Nc1ccc(Br)cc1` [Compound 15, N-(4-Bromophenyl)-2-[(5-{[2-(2,4-Dichlorophenyl)-1H-benzo[d]imidazol-1-yl]methyl}-1,3,4-oxadiazol-2-yl)thio]acetamide] as the molecule, how does the IC50 [1] read?
Its IC50 is 16.4 ± 0.44 µM.

What about the IC50 [2] of the same molecule?
The IC50 was 20.6 ± 1.41 µM.

What about the IC50 [4] of the same molecule?
The IC50 was 13.7 ± 0.45 µM.

And the melting point?
The melting point was 220 to 222 °C.

Which results are given for `O=C(CSc1nnc(Cn2c(-c3ccc(Cl)cc3Cl)nc3ccccc32)o1)Nc1ccc(F)cc1` [Compound 13, 2-[(5-{[2-(2,4-Dichlorophenyl)-1H-benzo[d]imidazol-1-yl]methyl}-1,3,4-oxadiazol-2-yl)thio]-N-(4-Fluorophenyl)acetamide]?
fold increase in cytotoxicity versus doxorubicin [1]: 1.64 fold; IC50 [1]: 2.9 ± 0.53 µM; cell cycle arrest phase [8]: G1 and S phases; cell distribution in G1 phase [8]: 34.88 ± 3.09%; cell distribution in S phase [8]: 41.14 ± 1.34%; cell distribution in G2 phase [8]: 23.97 ± 2.93%; times more active than doxorubicin [2]: 1.1 times; IC50 [2]: 5.3 ± 0.44 µM; IC50 [3]: 0.38 ± 0.022 µM; early apoptosis [9]: 76.2%; late apoptosis [9]: 21.7%; early apoptosis [10]: 80.24%; late apoptosis [10]: 5.4%; IC50 [4]: 4.35 ± 0.38 µM; fold better activity than doxorubicin [4]: 1.98 fold; cell cycle arrest phase [11]: only the S phase; cell distribution in G1 phase [11]: 25.38 ± 0.44%; cell distribution in G2 phase [11]: 28.65 ± 1.73%; cell distribution in S phase [11]: 45.93 ± 1.78%; cell cycle arrest phase [12]: G1 phase; cell distribution in G2 phase [12]: 24.64 ± 2.52%; cell distribution in G1 phase [12]: 36.34 ± 2.19%; cell distribution in S phase [12]: 38.99 ± 1.67%; early apoptosis [13]: 66.4%; late apoptosis [13]: no late apoptosis; necrosis [13]: no late apoptosis or necrosis

Which results are given for `Clc1ccc(-c2nc3ccccc3n2Cc2nnc(SCc3cn(-c4ccc(Cl)cc4Cl)nn3)o2)c(Cl)c1` [Compound 12, 2-({[1-(2,4-Dichlorophenyl)-1H-1,2,3-triazol-4-yl]methyl}thio)-5-{[2-(2,4-Dichlorophenyl)-1H-benzo[d]imidazol-1-yl]methyl}-1,3,4-oxadiazole]?
IC50 [1]: 25.2 ± 1.82 µM; IC50 [2]: 37.1 ± 0.67 µM; IC50 [4]: 33.6 ± 0.91 µM; melting point: 100 to 102 °C
